According to ChEMBL document CHEMBL1909046, “DrugMatrix in vitro pharmacology data”:

Columns and labels:
[1] = target: T1, Nitric oxide synthase, inducible (Mus musculus, UniProt P29477); set-up: species or system Escherichia coli;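 note: inhibition of iNOS enzyme activity measured with L-arginine as substrate; in other assays of this panel Not Active means under 50% inhibition at 10 µM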
T1 sequence (P29477 whole entry): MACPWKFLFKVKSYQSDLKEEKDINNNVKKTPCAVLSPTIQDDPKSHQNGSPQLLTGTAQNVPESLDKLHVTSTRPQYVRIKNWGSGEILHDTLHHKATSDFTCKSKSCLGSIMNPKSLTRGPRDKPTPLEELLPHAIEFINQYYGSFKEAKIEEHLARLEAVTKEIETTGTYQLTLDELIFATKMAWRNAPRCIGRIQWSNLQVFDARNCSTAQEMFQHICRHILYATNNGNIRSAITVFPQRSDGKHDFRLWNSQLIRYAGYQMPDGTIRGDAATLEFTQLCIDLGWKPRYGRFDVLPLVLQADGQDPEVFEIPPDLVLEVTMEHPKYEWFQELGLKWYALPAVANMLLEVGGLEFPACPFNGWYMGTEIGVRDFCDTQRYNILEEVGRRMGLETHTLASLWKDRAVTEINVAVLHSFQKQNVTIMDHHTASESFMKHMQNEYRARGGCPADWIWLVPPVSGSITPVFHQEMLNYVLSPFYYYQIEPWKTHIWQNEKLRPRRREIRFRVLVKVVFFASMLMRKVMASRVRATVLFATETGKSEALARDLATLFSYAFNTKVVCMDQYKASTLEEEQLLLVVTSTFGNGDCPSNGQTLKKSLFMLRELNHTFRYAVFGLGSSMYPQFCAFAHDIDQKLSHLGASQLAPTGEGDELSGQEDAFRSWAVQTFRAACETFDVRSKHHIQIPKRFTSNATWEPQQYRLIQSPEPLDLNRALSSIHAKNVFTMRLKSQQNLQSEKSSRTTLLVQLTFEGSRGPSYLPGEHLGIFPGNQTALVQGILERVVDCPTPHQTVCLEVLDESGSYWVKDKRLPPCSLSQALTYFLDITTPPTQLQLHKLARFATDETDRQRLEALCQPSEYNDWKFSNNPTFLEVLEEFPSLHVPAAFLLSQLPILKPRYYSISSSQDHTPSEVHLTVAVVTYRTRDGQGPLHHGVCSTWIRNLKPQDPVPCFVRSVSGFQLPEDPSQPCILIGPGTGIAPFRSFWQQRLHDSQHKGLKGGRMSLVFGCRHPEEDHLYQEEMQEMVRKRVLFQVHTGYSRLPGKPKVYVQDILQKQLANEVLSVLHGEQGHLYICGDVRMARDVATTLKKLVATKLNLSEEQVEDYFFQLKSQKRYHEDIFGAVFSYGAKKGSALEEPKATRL

Cytochrome P450 2D6 = Cytochrome P450 2D6 (Homo sapiens, UniProt P10635); conditions: bti-tn-5b1-4; note: in other assays of this panel Not Active means under 50% inhibition at 10 µM
Cytochrome P450 2D6, sequence (P10635 whole entry): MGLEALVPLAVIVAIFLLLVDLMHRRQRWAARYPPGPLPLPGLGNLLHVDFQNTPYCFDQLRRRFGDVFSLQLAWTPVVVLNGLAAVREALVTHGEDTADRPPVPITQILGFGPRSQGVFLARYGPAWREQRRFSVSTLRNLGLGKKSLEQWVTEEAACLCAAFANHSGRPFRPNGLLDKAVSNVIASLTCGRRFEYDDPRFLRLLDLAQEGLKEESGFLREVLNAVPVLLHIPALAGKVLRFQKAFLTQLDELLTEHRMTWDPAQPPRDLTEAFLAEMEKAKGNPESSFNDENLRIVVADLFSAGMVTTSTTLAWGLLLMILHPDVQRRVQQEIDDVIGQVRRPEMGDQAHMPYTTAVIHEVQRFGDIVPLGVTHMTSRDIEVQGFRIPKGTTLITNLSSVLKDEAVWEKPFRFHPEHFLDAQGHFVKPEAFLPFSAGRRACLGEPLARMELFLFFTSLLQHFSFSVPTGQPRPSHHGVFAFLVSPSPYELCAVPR

[2] = target: Epidermal growth factor receptor (Homo sapiens, UniProt P00533); experiment: DRUGMATRIX: Protein Tyrosine Kinase, EGF Receptor enzyme inhibition (substrate: Poly(Glu:Tyr)); type: cell-based, Insect cells; conditions: Not Active = under 50% inhibition at 10 µM
Epidermal growth factor receptor, sequence (P00533 whole entry): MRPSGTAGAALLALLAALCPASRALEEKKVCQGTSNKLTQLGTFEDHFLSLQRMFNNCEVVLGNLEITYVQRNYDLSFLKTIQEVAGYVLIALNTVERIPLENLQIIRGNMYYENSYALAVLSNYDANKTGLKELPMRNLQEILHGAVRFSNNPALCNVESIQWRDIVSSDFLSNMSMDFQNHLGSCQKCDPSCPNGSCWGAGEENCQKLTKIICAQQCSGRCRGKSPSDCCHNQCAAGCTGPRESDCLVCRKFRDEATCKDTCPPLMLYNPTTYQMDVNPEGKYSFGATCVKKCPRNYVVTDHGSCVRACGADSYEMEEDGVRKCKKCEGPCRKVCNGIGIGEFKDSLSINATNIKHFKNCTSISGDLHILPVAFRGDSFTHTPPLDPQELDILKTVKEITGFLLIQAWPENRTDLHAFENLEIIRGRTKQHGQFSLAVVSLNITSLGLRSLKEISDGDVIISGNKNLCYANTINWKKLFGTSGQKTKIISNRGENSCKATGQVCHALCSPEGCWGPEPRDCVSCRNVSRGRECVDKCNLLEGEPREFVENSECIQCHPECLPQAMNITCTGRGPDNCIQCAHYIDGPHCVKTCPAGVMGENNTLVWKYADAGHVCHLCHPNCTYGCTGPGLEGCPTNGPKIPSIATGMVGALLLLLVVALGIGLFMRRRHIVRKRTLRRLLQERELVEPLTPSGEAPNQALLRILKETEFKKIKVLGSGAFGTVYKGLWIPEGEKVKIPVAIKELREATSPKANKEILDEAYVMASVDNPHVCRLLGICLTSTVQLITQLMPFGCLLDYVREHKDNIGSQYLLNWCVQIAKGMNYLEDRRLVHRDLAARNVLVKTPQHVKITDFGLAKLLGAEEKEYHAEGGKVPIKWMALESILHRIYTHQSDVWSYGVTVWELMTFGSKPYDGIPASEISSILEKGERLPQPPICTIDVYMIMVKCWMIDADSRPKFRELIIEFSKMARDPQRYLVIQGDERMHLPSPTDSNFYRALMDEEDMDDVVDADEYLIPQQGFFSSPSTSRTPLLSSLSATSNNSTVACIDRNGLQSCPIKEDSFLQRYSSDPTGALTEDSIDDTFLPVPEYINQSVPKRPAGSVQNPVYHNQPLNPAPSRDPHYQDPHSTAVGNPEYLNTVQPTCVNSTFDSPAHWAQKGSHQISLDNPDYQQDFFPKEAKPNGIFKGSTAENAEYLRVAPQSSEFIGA

[3] = target: Tyrosine-protein kinase Fyn (Homo sapiens, UniProt P06241); experiment: biochemical; type: cell-based, Insect cells;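 note: enzymatic inhibition of Fyn kinase activity measured with Poly(Glu:Tyr) as the phosphorylation substrate; in other assays of this panel Not Active means under 50% inhibition at 10 µM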
Tyrosine-protein kinase Fyn, sequence (P06241 whole entry): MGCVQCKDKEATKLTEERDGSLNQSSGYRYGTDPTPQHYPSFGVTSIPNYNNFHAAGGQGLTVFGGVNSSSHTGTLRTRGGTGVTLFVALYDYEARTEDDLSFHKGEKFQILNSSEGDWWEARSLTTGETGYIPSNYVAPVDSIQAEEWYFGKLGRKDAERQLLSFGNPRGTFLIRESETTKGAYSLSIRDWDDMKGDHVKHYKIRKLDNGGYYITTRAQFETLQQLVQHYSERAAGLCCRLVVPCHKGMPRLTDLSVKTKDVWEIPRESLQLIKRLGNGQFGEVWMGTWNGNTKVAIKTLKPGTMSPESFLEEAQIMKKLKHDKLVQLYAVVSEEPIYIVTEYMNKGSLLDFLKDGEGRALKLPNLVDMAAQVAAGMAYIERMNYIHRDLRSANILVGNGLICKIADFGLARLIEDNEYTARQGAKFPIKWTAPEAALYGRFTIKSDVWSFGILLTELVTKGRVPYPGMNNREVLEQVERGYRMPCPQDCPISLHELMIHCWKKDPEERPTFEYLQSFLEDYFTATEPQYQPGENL

[4] = target: Protein kinase C alpha type (Homo sapiens, UniProt P17252); type: cell-based; conditions: sf9;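 note: inhibition of PKCalpha kinase activity measured in an enzyme assay with histone as the phosphorylation substrate; in other assays of this panel Not Active means under 50% inhibition at 10 µM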
[5] = target: Protein phosphatase 3 catalytic subunit alpha (Homo sapiens, UniProt Q08209); set-up: species or system Escherichia coli
[6] = target: Beta-2 adrenergic receptor (Homo sapiens, UniProt P07550); experiment: DRUGMATRIX: Adrenergic beta2 radioligand binding (ligand: [3H] CGP-12177); type: cell membranes, CHO, Membrane; conditions: Not Active = under 50% inhibition at 10 µM
Beta-2 adrenergic receptor, sequence (P07550 whole entry): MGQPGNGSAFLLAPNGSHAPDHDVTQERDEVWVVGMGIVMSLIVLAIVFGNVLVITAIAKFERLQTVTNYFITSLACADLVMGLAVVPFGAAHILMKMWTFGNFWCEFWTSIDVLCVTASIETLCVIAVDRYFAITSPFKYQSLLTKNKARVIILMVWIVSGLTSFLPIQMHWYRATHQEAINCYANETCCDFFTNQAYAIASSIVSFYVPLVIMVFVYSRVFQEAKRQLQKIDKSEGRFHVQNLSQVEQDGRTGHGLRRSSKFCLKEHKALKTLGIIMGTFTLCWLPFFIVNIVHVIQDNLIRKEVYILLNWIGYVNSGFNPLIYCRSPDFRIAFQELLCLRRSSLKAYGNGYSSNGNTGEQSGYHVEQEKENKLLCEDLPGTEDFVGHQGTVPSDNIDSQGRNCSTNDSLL

Cytochrome P450 2A6 = target: T2, Cytochrome P450 2A6 (Homo sapiens, UniProt P11509); conditions: bti-tn-5b1-4; note: in other assays of this panel Not Active means under 50% inhibition at 10 µM
T2 sequence (P11509 whole entry): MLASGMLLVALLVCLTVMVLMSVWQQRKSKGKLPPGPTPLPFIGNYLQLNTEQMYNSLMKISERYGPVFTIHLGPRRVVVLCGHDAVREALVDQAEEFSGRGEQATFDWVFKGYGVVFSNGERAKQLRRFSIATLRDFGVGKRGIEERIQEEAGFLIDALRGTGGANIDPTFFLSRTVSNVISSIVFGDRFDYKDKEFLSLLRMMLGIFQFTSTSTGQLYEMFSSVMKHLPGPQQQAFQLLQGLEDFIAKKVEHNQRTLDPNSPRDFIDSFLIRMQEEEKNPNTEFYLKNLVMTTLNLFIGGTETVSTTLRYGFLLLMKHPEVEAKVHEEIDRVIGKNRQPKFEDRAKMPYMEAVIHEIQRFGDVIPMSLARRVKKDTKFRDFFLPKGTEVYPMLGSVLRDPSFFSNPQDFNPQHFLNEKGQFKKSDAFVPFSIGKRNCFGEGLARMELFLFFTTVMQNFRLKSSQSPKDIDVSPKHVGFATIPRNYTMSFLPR

Row | SMILES | IC50 [1] | IC50 (Cytochrome P450 2D6) | Ki (Cytochrome P450 2D6) | IC50 ([2]; insect cells) | IC50 ([3]; insect cells) | IC50 [4] | IC50 [5] | IC50 ([6]; cho) | IC50 (Cytochrome P450 2A6) | Ki (Cytochrome P450 2A6) | IC50 ([2]; read-out: IC50) [nM] | IC50 ([3]; read-out: IC50) [nM] | IC50 ([6]; read-out: IC50) [nM] | Ki ([6]; read-out: Ki) [nM]
1 | COc1ccc(Cc2nccc3cc(OC)c(OC)cc23)cc1OC [PAPAVERINE] | Not Active | Not Active | Not Active | Not Active | Not Active | Not Active | Not Active | Not Active | Not Active | Not Active | – | – | – | –
2 | CNC(=C[N+](=O)[O-])NCCSCc1csc(CN(C)C)n1 [NIZATIDINE] | Not Active | Not Active | Not Active | Not Active | Not Active | Not Active | Not Active | Not Active | Not Active | Not Active | – | – | – | –
3 | O=C(c1ccccc1Cl)N1CCC(Cc2ccccc2)CC1 | Not Active | Not Active | Not Active | Not Active | Not Active | Not Active | Not Active | Not Active | Not Active | Not Active | – | – | – | –
4 | Cc1cccc(Nc2cc(Cl)nc(SCC(=O)O)n2)c1C [PIRINIXIC ACID] | Not Active | Not Active | Not Active | Not Active | Not Active | Not Active | Not Active | Not Active | Not Active | Not Active | – | – | – | –
5 | CC(CCc1ccc(O)cc1)NCCc1ccc(O)c(O)c1 (stereo unspecified) [DOBUTAMINE] | Not Active | Not Active | Not Active | – | – | Not Active | Not Active | – | Not Active | Not Active | 5550 | 3980 | 1520 | 1040
6 | CC(C)(Sc1cc(C(C)(C)C)c(O)c(C(C)(C)C)c1)Sc1cc(C(C)(C)C)c(O)c(C(C)(C)C)c1 [PROBUCOL] | Not Active | Not Active | Not Active | Not Active | Not Active | Not Active | Not Active | Not Active | Not Active | Not Active | – | – | – | –
7 | [N-]=[N+]=CC(=O)OC[C@H](N)C(=O)O [AZASERINE] | Not Active | Not Active | Not Active | Not Active | Not Active | Not Active | Not Active | Not Active | Not Active | Not Active | – | – | – | –
8 | C[C@H](C(=O)O)c1cccc(C(=O)c2ccccc2)c1 [DEXKETOPROFEN] | Not Active | Not Active | Not Active | Not Active | Not Active | Not Active | Not Active | Not Active | Not Active | Not Active | – | – | – | –
9 | O=c1cc(-c2ccccc2)oc2ccc3ccccc3c12 [BETA-NAPHTHOFLAVONE] | Not Active | Not Active | Not Active | Not Active | – | Not Active | Not Active | Not Active | Not Active | Not Active | – | 2510 | – | –
